Laboratory results as given in patent US7932283B2, “Fungicide N-cyclopropyl-sulfonylamide derivatives” (Bayer Cropscience AG, priority 2006, dated 2011).

Test: logP by HPLC on reversed-phase column (C 18), EEC Directive 79/B31 Annex V.A8, methods A and B
Type: physicochemical
Conditions: reversed-phase HPLC column (C 18), linear gradient 10% to 90% acetonitrile
Procedure: Calibration was carried out using unbranched alkan-2-ones (having 3 to 16 carbon atoms) with known logP values (determination of the logP values by the retention times using linear interpolation between two successive alkanones).

[1] = HPLC reversed-phase C 18, method A: 43° C., 0.1% aqueous phosphoric acid, acetonitrile
[2] = HPLC reversed-phase C 18, method B: 40° C., 0.1% aqueous formic acid and acetonitrile

O=C(c1cc(Br)c(Br)o1)N(C1CC1)S(=O)(=O)c1ccccc1O [Compound 1]
chromatographic logP [1]: 3.58

Cc1occc1C(=O)N(C1CC1)S(=O)(=O)c1cccc(O)c1 [Compound 3]
chromatographic logP [1]: 3.27

Cc1occc1C(=O)N(C1CC1)S(=O)(=O)c1ccccc1O [Compound 4]
chromatographic logP [1]: 2.77

Cc1cc(C(=O)N(C2CC2)S(=O)(=O)c2cccc(O)c2O)c(C)o1 [Compound 5]
chromatographic logP [2]: 3.8

Cc1cc(C(=O)N(C2CC2)S(=O)(=O)c2ccc(O)c(O)c2O)c(C)o1 [Compound 6]
chromatographic logP [2]: 4.4

Cc1cc(C(=O)N(C2CC2)S(=O)(=O)c2ccc(Oc3ccc(Br)cc3)cc2)c(C)o1 [Compound 7]
chromatographic logP [2]: 4.9

Cc1ccsc1C(=O)N(C1CC1)S(=O)(=O)c1cccc(O)c1 [Compound 13]
chromatographic logP [1]: 3.64

Cc1ccsc1C(=O)N(C1CC1)S(=O)(=O)c1ccccc1O [Compound 14]
chromatographic logP [1]: 3.12

O=C(c1cc(Br)c(Br)s1)N(C1CC1)S(=O)(=O)c1ccccc1O [Compound 15]
chromatographic logP [1]: 4.07

O=C(c1ccsc1I)N(C1CC1)S(=O)(=O)c1cccc(O)c1O [Compound 19]
chromatographic logP [2]: 3.8

O=C(c1ccsc1I)N(C1CC1)S(=O)(=O)c1ccc(Oc2ccccc2)cc1 [Compound 21]
chromatographic logP [2]: 4.3

O=C(c1ccsc1I)N(C1CC1)S(=O)(=O)c1ccc(Oc2ccc(Br)cc2)cc1 [Compound 22]
chromatographic logP [2]: 4.9

COc1cscc1C(=O)N(C1CC1)S(=O)(=O)c1cccc(O)c1O [Compound 25]
chromatographic logP [2]: 3.3

COc1cscc1C(=O)N(C1CC1)S(=O)(=O)c1ccc(Oc2ccccc2)cc1 [Compound 26]
chromatographic logP [2]: 3.9

COc1cscc1C(=O)N(C1CC1)S(=O)(=O)c1ccc(O)c(O)c1O [Compound 27]
chromatographic logP [2]: 3.9

COc1cscc1C(=O)N(C1CC1)S(=O)(=O)c1ccc(Oc2ccc(Br)cc2)cc1 [Compound 28]
chromatographic logP [2]: 4.4

CCOC(=O)c1[nH]c(C)c(C(=O)N(C2CC2)S(=O)(=O)c2cccc(O)c2)c1C [Compound 29]
chromatographic logP [1]: 3.46

CCOC(=O)c1[nH]c(C)c(C(=O)N(C2CC2)S(=O)(=O)c2ccc(C(F)(F)F)cc2)c1C [Compound 30]
chromatographic logP [1]: 3.72

CCOC(=O)c1[nH]c(C)c(C(=O)N(C2CC2)S(=O)(=O)c2ccc(O)c(C(F)(F)F)c2)c1C [Compound 31]
chromatographic logP [1]: 4.08

CCOC(=O)c1[nH]c(C)c(C(=O)N(C2CC2)S(=O)(=O)c2ccc(O)cc2O)c1C [Compound 32]
chromatographic logP [1]: 3.63

CCOC(=O)c1[nH]c(C)c(C(=O)N(C2CC2)S(=O)(=O)c2ccc(C(C)(C)C)cc2)c1C [Compound 33]
chromatographic logP [1]: 4.13

CCOC(=O)c1[nH]c(C)c(C(=O)N(C2CC2)S(=O)(=O)c2cccc(O)c2O)c1C [Compound 34]
chromatographic logP [2]: 3.5

Cn1cc(C(=O)N(C2CC2)S(=O)(=O)c2cccc(O)c2O)c(C(F)(F)F)c1 [Compound 36]
chromatographic logP [2]: 3.3

Cn1cc(C(=O)N(C2CC2)S(=O)(=O)c2ccc(O)c(O)c2O)c(C(F)(F)F)c1 [Compound 37]
chromatographic logP [2]: 3.9

Cn1cc(C(=O)N(C2CC2)S(=O)(=O)c2ccc(Oc3ccccc3)cc2)c(C(F)(F)F)c1 [Compound 38]
chromatographic logP [2]: 4

Cn1cc(C(=O)N(C2CC2)S(=O)(=O)c2ccc(Oc3ccc(Br)cc3)cc2)c(C(F)(F)F)c1 [Compound 39]
chromatographic logP [2]: 4.5

Cc1nc(C(F)(F)F)c(C(=O)N(C2CC2)S(=O)(=O)c2ccccc2O)s1 [Compound 59]
chromatographic logP [1]: 3.2

Cc1ncc(C(=O)N(C2CC2)S(=O)(=O)c2cccc(O)c2)s1 [Compound 60]
chromatographic logP [1]: 2.8

Cc1ncc(C(=O)N(C2CC2)S(=O)(=O)c2ccc(C(F)(F)F)cc2)s1 [Compound 61]
chromatographic logP [1]: 3.1

Cc1ncc(C(=O)N(C2CC2)S(=O)(=O)c2ccc(O)c(C(F)(F)F)c2)s1 [Compound 62]
chromatographic logP [1]: 3.46

Cc1ncc(C(=O)N(C2CC2)S(=O)(=O)c2ccc(O)c(O)c2)s1 [Compound 63]
chromatographic logP [1]: 3.33

Cc1ncc(C(=O)N(C2CC2)S(=O)(=O)c2ccc(O)cc2O)s1 [Compound 64]
chromatographic logP [1]: 2.91
